# According to patent US20080293727A1, “Novel sulfonamide inhibitors of aspartyl protease” (priority 1992, published 2008):
# Target: HIV-1 protease (Human immunodeficiency virus type 1 group M subtype B, UniProt P04585)
# Assay: Inhibition constants against HIV-1 protease (method of Pennington et al.)
# Assay type: biochemical
# Details: HIV-1 protease; read-out: Ki value
# Source text: We measured the inhibition constants of the compounds listed in Table VII against HIV-1 protease using the above-cited method of Pennington et al.
row,SMILES,Ki
1,"CC(C)CN(CC(O)[C@H](Cc1ccccc1)NC(=O)[C@H](CC(N)=O)NC(=O)c1ccc2ccccc2n1)S(=O)(=O)c1ccc(-c2ccccn2)s1 (stereo partly drawn) [Compound 12, (S)-N-1-(1-(S)-Benzyl-2-(syn)-hydroxyl-3-(isobutyl-(5-pyridin-2-yl-thiophene-2-sulfonyl)-amino)-propyl)-2-((quinoline-2-carbonyl)-amino)-succinamide]",0.1 nM
2,CC(C)CN(C[C@@H](O)[C@H](Cc1ccccc1)NC(=O)O[C@H]1CCOC1)S(=O)(=O)N1CCOCC1 [Compound 161],20 nM
3,C=C(COC)COC(=O)N[C@@H](Cc1ccccc1)[C@H](O)CN(CC1CCCC1)S(=O)(=O)c1ccc(OC)cc1 [Compound 162],0.5 nM
4,"COc1ccc(S(=O)(=O)N(CC(C)C)C[C@@H](O)[C@H](Cc2ccccc2)NC(=O)OCc2ccncc2)cc1 [Compound 163, N-((2 syn,3S)-2-Hydroxy-4-phenyl-3-(pyridin-4-yl-methoxycarbonylamino)-butyl)-N-isobutyl-4-methoxy-benzenesulfonamide]",0.5 nM
5,CC(=O)Nc1ccc(S(=O)(=O)N(CC(C)C)C[C@@H](O)[C@H](Cc2ccccc2)NC(=O)OCCc2ccccc2)cc1 [Compound 164],130 nM
6,"Cc1ccc(S(=O)(=O)N(CC(C)C)C[C@@H](O)[C@H](Cc2ccccc2)NC(=O)O[C@H]2CCOC2)cc1 [Compound 165, N-((2 syn,3S)-2-Hydroxy-4-phenyl-3-((syn)-tetrahydrofuran-3-yloxycarbonylamino)-butyl)-N-isobutyl-4-methyl-benzenesulfonamide]",0.4 nM
7,"O=C(N[C@@H](Cc1ccccc1)[C@H](O)CN(CC1CCCC1)S(=O)(=O)c1ccc(O)cc1)OCc1cccnc1 [Compound 166, N-cyclopentylmethyl-4-hydroxy-N-((2 syn,3S)-2-hydroxy-4-phenyl-3-(pyridin-3-yl-methoxycarbonylamino)-butyl)-benzenesulfonamide]",< 0.1 nM
8,"CC(C)CN(C[C@@H](O)[C@H](Cc1ccccc1)NC(=O)O[C@H]1CCOC1)S(=O)(=O)c1ccc([N+](=O)[O-])cc1 [Compound 167, N-((2 syn,3S)-2-Hydroxy-4-phenyl-3-((S)-tetrahydrofuran-3-yloxycarbonylamino)-butyl)-N-isobutyl-4-nitro-benzenesulfonamide]",0.45 nM
9,"O=C(N[C@@H](Cc1ccccc1)[C@H](O)CN(CC1CCCC1)S(=O)(=O)c1ccc(O)cc1)O[C@H]1CCOC1 [Compound 169, N-Cyclopentylmethyl-4-hydroxy-N-((2 syn,3S)-2-hydroxy-4-phenyl-3-((S)-tetrahydrofuran-3-yloxycarbonylamino)-butyl)-benzenesulfonamide]",< 0.1 nM
10,"O=C(N[C@@H](Cc1ccccc1)[C@H](O)CN(CC1CCCC1)S(=O)(=O)c1ccc([N+](=O)[O-])cc1)O[C@H]1CCOC1 [Compound 170, N-Cyclopentylmethyl-N-((2 syn,3S)-2-hydroxy-4-phenyl-3-((S)-tetrahydrofuran-3-yloxycarbonylamino)-butyl)-4-nitro-benzensulfonamide]",0.2 nM
11,"Nc1ccc(S(=O)(=O)N(CC2CCCC2)C[C@@H](O)[C@H](Cc2ccccc2)NC(=O)O[C@H]2CCOC2)cc1 [Compound 171, 4-Amino-N-cyclopentylmethyl-N-((2 syn,3S)-2-hydroxy-4-phenyl-3-((S)-tetrahydrofuran-3-yloxycarbonylamino)-butyl)-benzenesulfonamide]",0.2 nM
12,O=C(N[C@@H](Cc1ccccc1)[C@H](O)CN(CC1CCCC1)S(=O)(=O)c1ccc([N+](=O)[O-])cc1[N+](=O)[O-])O[C@H]1CCOC1 [Compound 172],21 nM
13,"Nc1ccc(S(=O)(=O)N(CC2CCCC2)C[C@@H](O)[C@H](Cc2ccccc2)NC(=O)O[C@H]2CCOC2)c(N)c1 [Compound 173, 2,4-Diamino-N-cyclopentylmethyl-N-((2 syn,3S)-2-hydroxy-4-phenyl-3-((S)-tetrahydrofuran-3-yloxycarbonylamino)-butyl)-benzenesulfonamide]",0.6 nM
14,CC(C)CN(C[C@@H](O)[C@H](Cc1ccccc1)NC(=O)O[C@H]1CCOC1)S(=O)(=O)c1ccc(OCc2ccccc2)cc1 [Compound 174],10 nM
15,CC(C)CN(C[C@@H](O)[C@H](Cc1ccccc1)NC(=O)O[C@H]1CCOC1)S(=O)(=O)c1ccc(O)cc1 [Compound 175],0.1 nM
16,COc1ccc(COC(=O)N[C@@H](Cc2ccccc2)[C@H](O)CN(CC2CCCC2)S(=O)(=O)c2ccc(OC)cc2)cc1 [Compound 177],< 0.1 nM
17,COc1ccc(S(=O)(=O)N(CC2CCCC2)C[C@@H](O)[C@H](Cc2ccccc2)NC(=O)OCc2cccc(OC)c2)cc1 [Compound 178],0.1 nM
18,COc1ccc(S(=O)(=O)N(CC2CCCC2)C[C@@H](O)[C@H](Cc2ccccc2)NC(=O)OCc2ccccc2OC)cc1 [Compound 179],0.4 nM
19,O=C(N[C@@H](Cc1ccccc1)[C@H](O)CN(CC1CCCC1)S(=O)(=O)c1ccc2c(c1)CCO2)O[C@H]1CCOC1 [Compound 180],< 0.1 nM
20,N#Cc1ccc(S(=O)(=O)N(CC2CCCC2)C[C@@H](O)[C@H](Cc2ccccc2)NC(=O)O[C@H]2CCOC2)cc1 [Compound 181],0.3 nM

row,SMILES,Ki
1,"O=C(N[C@@H](Cc1ccccc1)[C@H](O)CN(CC1CCCC1)S(=O)(=O)c1ccc(F)cc1)O[C@H]1CCOC1 [Compound 182, N-Cyclopentylmethyl-4-fluoro-N-((2 syn,3S)-2-hydroxy-4-phenyl-3-((S)-tetrahydrofuran-3-yloxycarbonylamino)-butyl)-benzenesulfonamide]",0.2 nM
2,"O=C(N[C@@H](Cc1ccccc1)[C@H](O)CN(CC1CCCC1)S(=O)(=O)c1ccc(Cl)c(Cl)c1)O[C@H]1CCOC1 [Compound 183, 3,4-Dichloro-N-cyclopentylmethyl-N-((2 syn,3S)-2-hydroxy-4-phenyl-3-((S)-tetrahydrofuran-3-yloxycarbonylamino)-butyl)-benzenesulfonamide]",0.1 nM
3,COc1ccc(S(=O)(=O)N(CC2CCCC2)C[C@@H](O)[C@H](Cc2ccccc2)NC(=O)O[C@@H]2CCN(C(=O)OC(C)(C)C)C2)cc1 [Compound 184],5 nM
4,COc1ccc(S(=O)(=O)N(CC2CCCC2)CC(O)C(Cc2ccccc2)NC(=O)OC2CCNC2)cc1 (stereo not drawn) [Compound 185],3.5 nM
5,CCC(C)C(NC(=O)OCc1ccccc1)C(=O)NC(Cc1ccccc1)C(O)CN(Cc1ccccc1)S(=O)(=O)Cc1ccccc1 (stereo not drawn) [Compound 186],140 nM
6,CC(=O)Nc1ccc(S(=O)(=O)N(CC(C)C)C[C@@H](O)[C@H](Cc2ccccc2)NC(=O)C(C)(C)NC(=O)OC(C)(C)C)cc1 [Compound 189],5500 nM
7,CC(=O)Nc1ccc(S(=O)(=O)N(CC(C)C)CC(O)C(Cc2ccccc2)NC(=O)C(CC(N)=O)NC(=O)c2ccc3ccccc3n2)cc1 (stereo not drawn) [Compound 193],400 nM
8,CC(C)CN(CC(O)C(Cc1ccccc1)NC(=O)C(CC(N)=O)NC(=O)c1ccc2ccccc2n1)S(=O)(=O)c1ccc(-c2ccon2)s1 (stereo not drawn) [Compound 194],350 nM
9,"COc1ccc(S(=O)(=O)N(CC2CCCC2)C[C@@H](O)[C@H](CC2CCCCC2)NC(=O)O[C@H]2CCOC2)cc1 [Compound 195, N-((2 syn,3S)-4-Cyclohexyl-2-hydroxy-3-((S)-tetrahydrofuran-3-yloxycarbonylamino)-butyl)-N-cyclopentylmethyl-4-methoxy-benzenesulfonamide]",0.2 nM
10,CC(=O)Nc1ccc(S(=O)(=O)N(CC(C)C)C[C@@H](O)[C@H](Cc2ccccc2)NC(=O)C(=O)C(C)(C)C)cc1 [Compound 1001],220 nM
11,CC(=O)Nc1ccc(S(=O)(=O)N(CC(C)C)C[C@@H](O)[C@H](Cc2ccccc2)NC(=O)C[C@H]2CNC(=O)C2)cc1 [Compound 1002],28 nM
12,CC(C)CN(C[C@@H](O)[C@H](Cc1ccccc1)NC(=O)O[C@H]1CCOC1)S(=O)(=O)c1cccnc1 [Compound 1003],8 nM
13,COc1ccc(S(=O)(=O)N(C)C[C@@H](O)[C@H](Cc2ccccc2)NC(=O)O[C@H]2CCOC2)cc1 [Compound 1005],250 nM
14,C=C(C)CN(C[C@@H](O)[C@H](Cc1ccccc1)NC(=O)O[C@H]1CCOC1)S(=O)(=O)c1ccc(OC)cc1 [Compound 1006],8 nM
15,COc1ccc(S(=O)(=O)N(CC2CCCO2)CC(O)C(Cc2ccccc2)NC(=O)OC2CCOC2)cc1 (stereo not drawn) [Compound 1007],42 nM
16,COc1ccc(S(=O)(=O)N(C[C@@H](O)[C@H](Cc2ccccc2)NC(=O)O[C@H]2CCOC2)CC(C)(C)CO)cc1 [Compound 1009],20 nM
17,COc1ccc(S(=O)(=O)N(C[C@@H](O)[C@H](Cc2ccccc2)NC(=O)O[C@H]2CCOC2)CC(C)(C)O)cc1 [Compound 1010],20 nM
18,COc1ccc(S(=O)(=O)N(C[C@@H](O)[C@H](Cc2ccccc2)NC(=O)O[C@H]2CCOC2)C2CCNCC2)cc1 [Compound 1011],1500 nM
19,COc1ccc(S(=O)(=O)N(C[C@@H](O)[C@H](Cc2ccccc2)NC(=O)O[C@H]2CCOC2)CN2CCCCC2)cc1 [Compound 1013],1500 nM
20,COc1ccc(S(=O)(=O)N(CCN2CCCCC2)C[C@@H](O)[C@H](Cc2ccccc2)NC(=O)O[C@H]2CCOC2)cc1 [Compound 1014],9300 nM

# Test system: HIVIIIb in CCRM-CEM cells
# Assay: Anti-viral potency in CCRM-CEM cells acutely infected with HIVIIIb, extracellular p24 antigen readout (method of Meek et al.)
# Assay type: cell-based, HIV-1
# Details: CCRM-CEM cells, HIV replication; read-out: IC90 Range
# Procedure: Compounds of formula I were tested for their antiviral potency in several virological assays.
# The effect of the compounds on inhibiting the replication of the virus was measured by determining the HIV extracellular p24 antigen concentration using a commercial enzyme immunoassay (obtained from Coulter Corporation, Hialeah, Fla.).
# In Table VIII, the following classifications have been employed: • A: inhibits HIV replication at concentration of 100 nM or less. • B: inhibits HIV replication at concentration of between 101 and 1,000 nM. • C: inhibits HIV replication at a concentration of between 1,001 and 10,000 nM. • D: inhibits HIV replication at a concentration of between 10,001 and 40,000 nM. • ND: not tested.
row,SMILES,IC90
1,"CC(C)CN(CC(O)[C@H](Cc1ccccc1)NC(=O)[C@H](CC(N)=O)NC(=O)c1ccc2ccccc2n1)S(=O)(=O)c1ccc(-c2ccccn2)s1 (stereo partly drawn) [Compound 12, (S)-N-1-(1-(S)-Benzyl-2-(syn)-hydroxyl-3-(isobutyl-(5-pyridin-2-yl-thiophene-2-sulfonyl)-amino)-propyl)-2-((quinoline-2-carbonyl)-amino)-succinamide]",< 100 nM

# Same assay, conditions: Human immunodeficiency virus 1; CCRM-CEM cells, HIV replication; read-out: IC90 Range
row,SMILES,IC90
1,"CC(C)CN(C[C@@H](O)[C@H](Cc1ccccc1)NC(=O)O[C@H]1CCOC1)S(=O)(=O)c1ccc(N)cc1 [Compound 168, 4-Amino-N-((2 syn,3S)-2-Hydroxy-4-phenyl-3-((S)-tetrahydrofuran-3-yloxycarbonylamino)-butyl)-N-isobutyl-benzenesulfonamide]",< 100 nM
